Read-outs that look alike come from different tables or passages of the source.
Tests used:
[1] = tested on: SW48 colorectal cancer cells; test: 2D antiproliferation on MSI-H SW48 cells, CTG, 5 days; assay type: cell-based; settings: for IC50 / inhibition at 38.15 pM / inhibition at 0.000152588 µM / inhibition at 0.000610352 µM / inhibition at 0.00244141 µM / inhibition at 0.00976562 µM / inhibition at 0.0390625 µM / inhibition at 0.15625 µM / inhibition at 0.625 µM / inhibition at […] / inhibition at 10 µM: Homo sapiens; for IC50: 120 h, SW48 MSI-H, 5 days; for inhibition at 38.15 pM: SW48, 0.038146973 nM; for inhibition at 0.000152588 µM: SW48, 0.152587891 nM; for inhibition at 0.000610352 µM: SW48, 0.610351563 nM; for inhibition at 0.00244141 µM: SW48, 2.44140625 nM; for inhibition at 0.00976562 µM: SW48, 9.765625 nM; for inhibition at 0.0390625 µM: SW48, 39.0625 nM; for inhibition at 0.15625 µM: SW48, 156.25 nM; for inhibition at 0.625 µM: SW48, 625 nM; for inhibition at […]: SW48, 2500 nM; for inhibition at 10 µM: SW48, 10000 nM
Protocol: The molecules of the present disclosure were tested for their anti-proliferative activity on MSI-H tumor cells.
SW48 colorectal cancer cells with MSI were cultured in a RMI1640 medium containing 10% FBS and 1% penicillin-streptomycin, and the mixture was cultured in a 37° C., 5% CO2 incubator. 40 μL of cell suspension was added to each well of a 384-well microplate. […] of compounds with different concentrations were added to each well using Echo, and the mixtures were cultured in a 37° C., 5% CO2 incubator for 5 days. 40 μL of CTG solution (Promega, Cat No. G7573) was added to each well and incubated in a 37° C., 5% CO2 incubator in the dark for 30 minutes. The luminescence value was read using an Envision multi-function microplate reader (Perkin Elmer, catalog number Envision 2104). The optical signal is proportional to the amount of ATP in the system, while the ATP content directly characterizes the number of viable cells in the system.

[2] = tested on: HT-29 colorectal cancer cells; test: 2D antiproliferation on MSS HT-29 cells, CTG, 5 days; assay type: cell-based; settings: Homo sapiens, 120 h, HT-29 MSS
Protocol: The molecules of the invention were tested for their anti-proliferative activities on MSS tumor cells.
HT-29 colorectal cancer cells with MSS were cultured in a McCoy's 5A medium containing 10% FBS and 1% penicillin-streptomycin in a 37° C., 5% CO2 constant temperature incubator. 40 μL of cell suspension was added to each well of a 384-well microplate. […] of compounds with different concentrations were added to each well using Echo. The mixtures were cultured in a 37° C., 5% CO2 constant temperature incubator for 5 days. 40 μL of CTG solution (Promega, Cat No. G7573) was added to each well, and the mixture was incubated in a 37° C., 5% CO2 constant temperature incubator for 30 minutes in the dark. The luminescence value was read using an Envision multi-function microplate reader (Perkin Elmer, catalog number Envision 2104). The optical signal is proportional to the amount of ATP in the system, while the ATP content directly characterizes the number of viable cells in the system.

[3] = read-out: Average Value/Inhibition Rate
[4] = read-out: Test 1/Inhibition Rate
[5] = read-out: Test 2/Inhibition Rate

## CCc1c(N2CCN(C(=O)c3cc(C)ncn3)CC2)c(=O)n2nc(-c3cc4c(s3)COC4)nc2n1CC(=O)Nc1ccc(C(F)(F)F)cc1Cl [A2]
[1]
  IC50: 848 nM

## CCc1c(N2CCN(C(=O)c3ncnc(C)c3O)CC2)c(=O)n2nc(-c3ccc(=O)n(C)c3)nc2n1CC(=O)Nc1ccc(C(F)(F)F)cc1Cl [A3, reference compound]
[1]
  IC50: 2000 nM

## CCc1c(N2CCN(C(=O)c3ncccc3O)CC2)c(=O)n2nc(C3=CCS(=O)(=O)CC3)nc2n1CC(=O)Nc1ccc(C(F)(F)F)cc1Cl [P6]
[1]
  IC50: 2060 nM
[2]
  IC50: > 10000 nM

## CCc1c(N2CCN(C(=O)c3ncnc(C)c3O)CC2)c(=O)n2nc(-c3cc4cn[nH]c4s3)nc2n1CC(=O)Nc1ccc(C(F)(F)F)cc1Cl [P19]
[1]; 39 nM
  inhibitory activity on SW48 cells: high inhibitory activity
[1]
  IC50: 82 nM
[1]; [3]
  inhibition at 38.15 pM: -0.502%
  inhibition at 0.000152588 µM: -1.21%
  inhibition at 0.000610352 µM: 2.86%
  inhibition at 0.00244141 µM: -3.38%
  inhibition at 0.00976562 µM: -3.51%
  inhibition at 0.0390625 µM: 1.51%
  inhibition at 0.15625 µM: 95.5%
  inhibition at 0.625 µM: 97.6%
  inhibition at […]: 98.6%
  inhibition at 10 µM: 102%
[1]; [4]
  inhibition at 38.15 pM: 2.13%
  inhibition at 0.000152588 µM: -2.38%
  inhibition at 0.000610352 µM: 3.47%
  inhibition at 0.00244141 µM: -2.94%
  inhibition at 0.00976562 µM: -1.53%
  inhibition at 0.0390625 µM: 3.47%
  inhibition at 0.15625 µM: 96%
  inhibition at 0.625 µM: 96.9%
  inhibition at […]: 99.4%
  inhibition at 10 µM: 103%
[1]; [5]
  inhibition at 38.15 pM: -3.13%
  inhibition at 0.000152588 µM: -0.0356%
  inhibition at 0.000610352 µM: 2.26%
  inhibition at 0.00244141 µM: -3.82%
  inhibition at 0.00976562 µM: -5.5%
  inhibition at 0.0390625 µM: -0.452%
  inhibition at 0.15625 µM: 95%
  inhibition at 0.625 µM: 98.4%
  inhibition at […]: 97.8%
  inhibition at 10 µM: 102%
[2]
  IC50: > 10000 nM

## CCc1c(N2CCN(C(=O)c3ncnc(C)c3O)CC2)c(=O)n2nc(-c3cc4c(s3)COC4)nc2n1CC(=O)Nc1ccc(Cl)cc1Cl [P26]
[1]
  IC50: 41 nM
[2]
  IC50: > 10000 nM

## CCc1ccc(NC(=O)Cn2c(CC)c(N3CCN(C(=O)c4ncnc(C)c4O)CC3)c(=O)n3nc(-c4cc5c(s4)COC5)nc23)c(C)c1 [P27]
[1]
  IC50: 46 nM
[2]
  IC50: > 10000 nM

## CCc1c(N2CCN(C(=O)c3ncccc3O)CC2)c(=O)n2nc(-c3cc4c(s3)COC4)nc2n1CC(=O)Nc1ccc(C(F)(F)F)cc1 [P28]
[1]
  IC50: 136 nM
[2]
  IC50: > 10000 nM

## CCc1c(N2CCN(C(=O)c3ncnc(C)c3O)CC2)c(=O)n2nc(-c3cc4c(s3)COC4)nc2n1CC(=O)Nc1ccc(C(F)(F)F)c(F)c1C [P30]
[1]
  IC50: 33 nM
[2]
  IC50: > 10000 nM

## CCc1c(N2CCN(C(=O)c3ncnc(C)c3O)CC2)c(=O)n2nc(-c3cc4c(s3)COC4)nc2n1CC(=O)Nc1cc(F)c(C(F)(F)F)cc1C [P31]
[1]
  IC50: 49 nM
[2]
  IC50: > 10000 nM

## CCc1c(N2CCN(C(=O)c3ncnc(C)c3O)CC2)c(=O)n2nc(-c3sc(CO)nc3C)nc2n1CC(=O)Nc1ccc(C(F)(F)F)cc1Cl [P34]
[1]
  IC50: 142 nM
[2]
  IC50: > 10000 nM

## CCc1c(N2CCN(C(=O)c3ncnc(C)c3O)CC2)c(=O)n2nc(-c3cnc(CO)s3)nc2n1CC(=O)Nc1ccc(C(F)(F)F)cc1Cl [P35]
[1]
  IC50: 199 nM
[2]
  IC50: > 10000 nM

## CCc1c(N2CCN(C(=O)c3ncnc(C)c3O)CC2)c(=O)n2nc(-c3cnc(CO)s3)nc2n1CC(=O)Nc1ccc(C(F)(F)F)c2ccsc12 [P36]
[1]
  IC50: 561 nM
[2]
  IC50: > 10000 nM

## CCc1c(N2CCN(C(=O)c3ncnc(C)c3O)CC2)c(=O)n2nc(-c3ccn4nccc4c3)nc2n1CC(=O)Nc1ccc(C(F)(F)F)cc1Cl [P37]
[1]
  IC50: 46 nM
[2]
  IC50: > 10000 nM

## CCc1c(N2CCN(C(=O)c3ncnc(C)c3O)CC2)c(=O)n2nc(-c3ccc4nccn4c3)nc2n1CC(=O)Nc1ccc(C(F)(F)F)cc1Cl [P38]
[1]
  IC50: 82 nM
[2]
  IC50: > 10000 nM

## CCc1c(N2CCN(C(=O)c3ncnc(C)c3O)CC2)c(=O)n2nc(-c3ccc4nncn4c3)nc2n1CC(=O)Nc1ccc(C(F)(F)F)cc1Cl [P39]
[1]
  IC50: > 10000 nM
[2]
  IC50: > 10000 nM

## CCc1c(N2CCN(C(=O)c3ncnc(C)c3O)CC2)c(=O)n2nc(-c3cc4c(s3)COCC4)nc2n1CC(=O)Nc1ccc(C(F)(F)F)cc1Cl [P40]
[1]
  IC50: 113 nM

## CCc1c(N2CCN(C(=O)c3ncccc3O)CC2)c(=O)n2nc(-c3c[nH]c4ncncc34)nc2n1CC(=O)Nc1ccc(C(F)(F)F)cc1Cl [P41]
[1]
  IC50: 2080 nM
[2]
  IC50: 5590 nM

## CCc1c(N2CCN(C(=O)c3ncnc(C)c3O)CC2)c(=O)n2nc(-c3cc4cncnc4s3)nc2n1CC(=O)Nc1ccc(C(F)(F)F)cc1Cl [P42]
[1]
  IC50: 620 nM
[2]
  IC50: > 10000 nM

## CCc1c(N2CCN(C(=O)c3ncnc(C)c3O)CC2)c(=O)n2nc(-c3ncc(CO)s3)nc2n1CC(=O)Nc1ccc(C(F)(F)F)cc1Cl [P43]
[1]
  IC50: 593 nM

## CCc1c(N2CCN(C(=O)c3ncnc(C)c3O)CC2)c(=O)n2nc(-c3cc4cncnc4[nH]3)nc2n1CC(=O)Nc1ccc(C(F)(F)F)cc1Cl [P44]
[1]
  IC50: > 10000 nM
[2]
  IC50: > 10000 nM

## CCc1c(N2CCN(C(=O)c3ncnc(C)c3O)CC2)c(=O)n2nc(-c3cc4n(c3)CCOC4)nc2n1CC(=O)Nc1ccc(C(F)(F)F)cc1Cl [P45]
[1]
  IC50: 54 nM
[2]
  IC50: > 10000 nM

## CCc1c(N2CCN(C(=O)c3ncnc(C)c3O)CC2)c(=O)n2nc(-c3ccc4nccn4c3)nc2n1CC(=O)Nc1ccc(C(F)(F)F)cc1F [P46]
[1]
  IC50: 452 nM
[2]
  IC50: > 10000 nM

## CCc1c(N2CCN(C(=O)c3ncnc(C)c3O)CC2)c(=O)n2nc(-c3ccn4nccc4c3)nc2n1CC(=O)Nc1ccc(C(F)(F)F)cc1C [P48]
[1]
  IC50: 32 nM

## CCc1c(N2CCN(C(=O)c3ncnc(C)c3O)CC2)c(=O)n2nc(-c3cnn(S(C)(=O)=O)c3)nc2n1CC(=O)Nc1ccc(C(F)(F)F)cc1Cl [P49]
[1]
  IC50: 574 nM

## CCc1c(N2CCN(C(=O)c3ncnc(C)c3O)CC2)c(=O)n2nc(-c3cc4cn[nH]c4s3)nc2n1CC(=O)Nc1ccc(C(F)(F)F)cc1F [P51]
[1]
  IC50: 242 nM

## CCc1c(N2CC3CC(C2)N3C(=O)c2ncnc(C)c2O)c(=O)n2nc(-c3cc4c(s3)COC4)nc2n1CC(=O)Nc1ccc(C(F)(F)F)cc1C [P54]
[1]
  IC50: 2140 nM

## CCc1c(N2CCN(C(=O)c3ncnc(C)c3O)C3(CC3)C2)c(=O)n2nc(-c3cc4c(s3)COC4)nc2n1CC(=O)Nc1ccc(C(F)(F)F)cc1C [P55]
[1]
  IC50: 672 nM

## CCc1c(N2CCN(C(=O)c3ncnc(C)c3O)CC2)c(=O)n2nc(-c3cc4c(s3)COC4)nc2n1CC(=O)Nc1ccc(C(F)(F)F)c2sccc12 [P56]
[1]
  IC50: 36 nM

## CCc1c(N2CCN(C(=O)c3ncnc(C)c3O)CC2)c(=O)n2nc(-c3cc4c(s3)COC4)nc2n1CC(=O)Nc1ccc(-c2cccnc2)cc1Cl [P61]
[1]
  IC50: 8850 nM

## CCc1c(N2CCN(C(=O)c3ncnc(C)c3O)CC2)c(=O)n2nc(-c3cn4cncc4s3)nc2n1CC(=O)Nc1ccc(C(F)(F)F)cc1C [P64]
[1]
  IC50: 530 nM

## [2H]C([2H])([2H])c1ncnc(C(=O)N2CCN(c3c(CC)n(CC(=O)Nc4ccc(C(F)(F)F)cc4Cl)c4nc(-c5cc6c(s5)COC6)nn4c3=O)CC2)c1O [P68]
[1]
  IC50: 28 nM

## [2H]C1([2H])N(C(=O)c2ncnc(C)c2O)C([2H])([2H])C([2H])([2H])N(c2c(CC)n(CC(=O)Nc3ccc(C(F)(F)F)cc3C)c3nc(-c4cc5c(s4)COC5)nn3c2=O)C1([2H])[2H] [P70]
[1]
  IC50: 34 nM
